Where a SMILES comes first, the peptide text is derived from it.
What was measured:
MT4 cells = format: cell-based, human
Description: The HIV-infected MT4 cells were incubated in RPMI-1640 culture medium supplemented with 10% FBS and 2 mM L-glutamine. The MT4 cells (0.5 million cells per 1 ml of culture medium) were placed in wells of a 24-well plastic culture plates and kept for 7 days of 37° C. in an atmosphere of 4.5% CO2. Each of the MPs examined was added into respective wells of the culture plates, to final concentrations of 0.1, 0.5, 1, 5, 10, 50 and 100 μg per 1 ml of culture were used. Azidothymidine (Sigma Chemical Co.) at its final concentration of 0.1 μg/ml, was used as a positive anti-viral control during each of the experiments.
Azidothymidine (0.1 μg/ml) caused 100% inhibition of HIV replication in the infected MT-4 cells.

serum interferon = assay: Serum interferon increase in mice (titration on EMV-infected L929 cells); format: in vivo; details: dose and time not given
[1] = system: encephalomyocarditis virus (EMV); assay: Anti-viral activity in vitro, L929 cells infected by EMV; format: cell-based, mouse; details: pre-incubation 24 or 48 h, then 100 TCID50 of EMV
Description: The L929 mouse fibroblastoid cell line was maintained in vitro as described above. MP-3, MP-4, MP-5 and MP-6 were added into triplicate cultures using the following final concentrations: 500, 250, 125, 63, 31, 16, 8, 4, 2, 1, 0.5, 0.25 μg per 1 ml of culture. Ridostin was used as a control interferon-inducer.
24 or 48 h post-injection, the L929 cell cultures were infected by 100 TCID50 of EMV. During the next 24 h the viral infection caused dramatic damages in L929 cells. […] MP-5, by contrast, when added in a final concentration of 16 μg/ml or more, completely abrogated destructive influence of the virus on L929 cells. So did MP-6, when added at a concentration of 4 μg/ml or more. […] MP-4 also defended the L929 cells from the virus-induced damage, after 48 h exposure of the cells in the presence of 32 μg/ml (or higher concentration) of the preparation before their challenge by the virus.

| Molecule | Damage of MT4 cells (cell viability) (MT4 cells) | Serum interferon titer, level characteristic of positive control (serum interferon) [units/ml] | Concentration that completely abrogated destructive influence of the virus on L929 cells [1] [µg/mL] |
| --- | --- | --- | --- |
| CC(C)C[C@H](N)C(=O)N[C@H](C(=O)N[C@@H](CS)C(=O)N[C@@H](Cc1ccc(O)cc1)C(=O)N1CCC[C@H]1C(=O)N[C@@H](CCC(N)=O)C(=O)O)C(C)C [MP-3, LVCYPQ] (H-LVCYPQ-OH; N-terminus and C-terminus assumed) | no visible damage | – | – |
| CC[C@H](C)[C@H](NC(=O)[C@H](CCCNC(=N)N)NC(=O)[C@@H]1CCCN1C(=O)[C@H](CCCNC(=N)N)NC(=O)[C@@H](N)Cc1ccccc1)C(=O)N[C@@H](CCSC)C(=O)N[C@H](C(=O)N1CCC[C@H]1C(=O)O)[C@@H](C)O [MP-4, FRPRIMTP] (H-FRPRIMTP-OH; N-terminus and C-terminus assumed) | no visible damage | – | – |
| CC(C)[C@H](N)C(=O)N[C@@H](CC(=O)O)C(=O)N1CCC[C@H]1C(=O)N1CCC[C@H]1C(=O)O [MP-6, VDPP] (H-VDPP-OH; N-terminus and C-terminus assumed) | no visible damage | – | – |
| Ridostin | – | 320 | ≥ 0.5 |
| CC(C)[C@H](N)C(=O)N[C@H](C(=O)N[C@@H](Cc1ccc(O)cc1)C(=O)N1CCC[C@H]1C(=O)N[C@@H](CC(=O)O)C(=O)O)C(C)C [MP-5, VVYPD] (H-VVYPD-OH; N-terminus and C-terminus assumed) | no visible damage | – | – |

From patent publication US6469137B1, “Myelopeptides and their therapeutic use” (Primamedic, Ltd, priority 1997, dated 2002)
